*1 amine or outer side, *2 acyl side, *3 side chain or, on linkers, in order; H or OH if unused. Where a SMILES comes first, the peptide text is derived from it. Bridges are numbered along the chain shown (N, C = ends). [ ]: non-standard residue; d: D form. The star is where a group is joined. hPhe(3,5-F2-4-CF3) = N[C@@H](CCc1cc(F)c(C(F)(F)F)c(F)c1)C(=O)O; NPrPhe(4-CF3) = CCCN[C@@H](Cc1ccc(C(F)(F)F)cc1)C(=O)O; NMeGly(cPent) = CN[C@H](C(=O)O)C1CCCC1; X9 = C[C@@](N[*:1])(C(=O)[*:2])C1CC1; NMeD = CN[C@@H](CC(=O)O)C(=O)O; NMeL = CN[C@@H](CC(C)C)C(=O)O; αMeS = C[C@](N)(CO)C(=O)O; Morpholide = C1CN(*)CCO1; Aze = O=C(O)[C@@H]1CCN1; Sar = CNCC(=O)O; Allyl = C=CC*

Test [1] concerns the target GDP-bound NRAS wild-type protein (Homo sapiens, UniProt P01111). In words: Binding to NRAS by surface plasmon resonance (SPR), Single Cycle Kinetics. Particulars: for NRAS/KRAS (ratio of KD value with respect to NRAS to KD value with respect to KRAS): GDP-bound NRAS wild-type vs GDP-bound KRAS wild-type. For orientation: In SPR one partner is held on a chip, and binding of the other changes the refractive index at the surface.

For test [2], the target named is GDP-bound HRAS wild-type protein (Homo sapiens, UniProt P01112). In words: Binding to HRAS by surface plasmon resonance (SPR), Single Cycle Kinetics. Particulars: for HRAS/KRAS (ratio of KD value with respect to HRAS to KD value with respect to KRAS): GDP-bound HRAS wild-type vs GDP-bound KRAS wild-type.
Chain of GDP-bound HRAS wild-type protein (P01112 whole entry): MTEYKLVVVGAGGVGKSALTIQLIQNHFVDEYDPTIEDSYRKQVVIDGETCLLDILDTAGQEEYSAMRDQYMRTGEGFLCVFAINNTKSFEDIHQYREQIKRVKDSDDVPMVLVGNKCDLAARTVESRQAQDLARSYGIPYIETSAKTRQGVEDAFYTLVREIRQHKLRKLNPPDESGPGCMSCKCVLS

Chain of GDP-bound NRAS wild-type protein (P01111 whole entry): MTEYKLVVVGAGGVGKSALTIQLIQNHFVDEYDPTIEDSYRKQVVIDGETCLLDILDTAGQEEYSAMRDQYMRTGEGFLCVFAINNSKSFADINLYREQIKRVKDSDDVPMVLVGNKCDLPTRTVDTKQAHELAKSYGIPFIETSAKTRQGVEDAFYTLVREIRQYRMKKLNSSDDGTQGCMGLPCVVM

As for `CCO[C@@H]1C[C@H]2C(=O)NC3(CCC3)C(=O)N(C)[C@@H](C(CC)CC)C(=O)N(C)[C@H](C(=O)N(C)C)CC(=O)N(C)[C@H]3CCCC/C=C/c4ccc(cc4)C[C@@H](C(=O)N(C)CC(=O)N[C@@H](CCc4ccc(Cl)c(Cl)c4)C(=O)N2C1)N1CC/C=C\C[C@@H](C1=O)N(C)C(=O)CN(C1CC1)C(=O)[C@H]([C@@H](C)CC)NC3=O` [PP2605], in test [1] (class symbols), the “NRAS/KRAS (ratio of KD value with respect to GDP-bound NRAS wild-type protein to KD value with respect to KRAS)” value is given as “AA (a compound having 20 or more is denoted as AA)”. In test [2] (class symbols), the “HRAS/KRAS (ratio of KD value with respect to GDP-bound HRAS wild-type protein to KD value with respect to KRAS)” value was “A (a compound having 10 or more and less than 20 is denoted as A)”.
Consider `CC[C@H](C)[C@@H]1NC(=O)[C@H](CC(C)C)N(C)C(=O)C[C@@H](C(=O)N2CCOCC2)N(C)C(=O)[C@H](C2CCCC2)N(C)C(=O)C2(CCOCC2)NC(=O)[C@@H]2CCCN2C(=O)[C@H](CCc2cc(F)c(C(F)(F)F)c(F)c2)NC(=O)CN(C)C(=O)[C@H](Cc2ccc(C(F)(F)F)cc2)N2CCCC[C@@H](C2=O)N(C)C(=O)CN(C)C1=O` [PP0564], for which the “NRAS/KRAS (ratio of KD value with respect to GDP-bound NRAS wild-type protein to KD value with respect to KRAS)” value in test [1] (SPR) was “B (a compound having 3 or more and less than 10 is denoted as B)”. For the same molecule, the “HRAS/KRAS (ratio of KD value with respect to GDP-bound HRAS wild-type protein to KD value with respect to KRAS)” value in test [2] (SPR) was “B (a compound having 3 or more and less than 10 is denoted as B)”.
For the molecule `CCO[C@@H]1C[C@H]2C(=O)NC3(CCC3)C(=O)N(C)[C@@H](C3CCCC3)C(=O)N(C)[C@H](C(=O)N(C)C)CC(=O)N(C)[C@@H](CC)C(=O)N[C@@H]([C@@H](C)CC)C(=O)N(C)[C@@H](C)C(=O)N(C)[C@H]3C/C=C\CCN(C3=O)[C@@H](Cc3ccc(C(F)(F)F)cc3)C(=O)N(C)CC(=O)N[C@@H](CCc3cc(F)c(C(F)(F)F)c(F)c3)C(=O)N2C1` [PP1054], the “NRAS/KRAS (ratio of KD value with respect to NRAS to KD value with respect to KRAS)” value in test [1] (SPR) was “A (a compound having 10 or more and less than 20 is denoted as A)”. Besides, the “HRAS/KRAS (ratio of KD value with respect to HRAS to KD value with respect to KRAS)” value in test [2] (SPR) was “B (a compound having 3 or more and less than 10 is denoted as B)”.
On to `C=CCOC[C@]1(C)NC(=O)[C@@H]2CCCN2C(=O)[C@H](CCc2cc(F)c(C(F)(F)F)c(F)c2)NC(=O)CN(C)C(=O)[C@H](Cc2ccc(C(F)(F)F)cc2)N(CCC)C(=O)[C@@H]2CCN2C(=O)CN(C)C(=O)[C@H]([C@@H](C)CC)NC(=O)[C@H](CC(C)C)N(C)C(=O)C[C@@H](C(=O)N2CCOCC2)N(C)C(=O)[C@H](C2CCCC2)N(C)C1=O` [PP0799] ([NMeL]I[Sar][Aze][NPrPhe(4-CF3)][Sar][hPhe(3,5-F2-4-CF3)]P[αMeS](Allyl)[NMeGly(cPent)][NMeD]-Morpholide; lactam N-11), for which the “NRAS/KRAS (ratio of KD value with respect to GDP-bound NRAS wild-type protein to KD value with respect to KRAS)” value in test [1] (SPR) is “C (A compound having a KD ratio of 0.1 or more and less than 3 is denoted as C)”. Further, the “HRAS/KRAS (ratio of KD value with respect to GDP-bound HRAS wild-type protein to KD value with respect to KRAS)” value in test [2] (SPR) was “B (a compound having 3 or more and less than 10 is denoted as B)”.
As to `CCO[C@@H]1C[C@H]2C(=O)NC3(CCC3)C(=O)N(C)[C@@H](C3CCCC3)C(=O)N(C)[C@H](C(=O)N(C)C)CC(=O)N(C)[C@@H](COC)C(=O)N[C@@H]([C@@H](C)CC)C(=O)N(C)CC(=O)N(C)[C@H]3CCCCCN(C3=O)[C@@H](Cc3ccc(F)cc3)C(=O)N(C)CC(=O)N[C@@H](CCc3cc(F)c(C(F)(F)F)c(F)c3)C(=O)N2C1` [PP1193], the “NRAS/KRAS (ratio of KD value with respect to NRAS to KD value with respect to KRAS)” value in test [1] (SPR) is “B (a compound having 3 or more and less than 10 is denoted as B)”. The “HRAS/KRAS (ratio of KD value with respect to HRAS to KD value with respect to KRAS)” value in test [2] (SPR) is “B (a compound having 3 or more and less than 10 is denoted as B)”.
As for `CC[C@H](C)[C@@H]1NC(=O)[C@H](CC)N(C)C(=O)C[C@@H](C(=O)N(C)C)N(C)C(=O)[C@H](C2CCCC2)N(C)C(=O)C2(CCC2)NC(=O)[C@@H]2C[C@H](N3CCC(F)(F)CC3)CN2C(=O)[C@H](CCc2cc(F)c(C(F)(F)F)c(F)c2)NC(=O)CN(C)C(=O)[C@H](Cc2ccc(C(F)(F)F)cc2)N2CCCCC[C@@H](C2=O)N(C)C(=O)CN(C)C1=O` [PP0731], the “NRAS/KRAS (ratio of KD value with respect to GDP-bound NRAS wild-type protein to KD value with respect to KRAS)” value in test [1] (SPR) was “B (a compound having 3 or more and less than 10 is denoted as B)”. The “HRAS/KRAS (ratio of KD value with respect to GDP-bound HRAS wild-type protein to KD value with respect to KRAS)” value in test [2] (SPR) was “B (a compound having 3 or more and less than 10 is denoted as B)”.
Take `CCCN1C(=O)CN(C)C(=O)CN(C)C(=O)[C@H]([C@@H](C)CC)NC(=O)[C@H](CC(C)C)N(C)C(=O)C[C@@H](C(=O)N(C)C)N(C)C(=O)[C@H](C2CCCC2)N(C)C(=O)[C@](C)(C2CC2)NC(=O)[C@@H]2CCCN2C(=O)[C@H](CCc2cc(F)c(C(F)(F)F)c(F)c2)NC(=O)CN(C)C(=O)[C@@H]1Cc1ccc(C(F)(F)F)cc1` [PP0734] ([NMeL]I[Sar][Sar][NPrPhe(4-CF3)][Sar][hPhe(3,5-F2-4-CF3)]P[X9][NMeGly(cPent)][NMeD]-NMe2; lactam N-11): the “NRAS/KRAS (ratio of KD value with respect to GDP-bound NRAS wild-type protein to KD value with respect to KRAS)” value in test [1] (SPR) is “B (a compound having 3 or more and less than 10 is denoted as B)”. Also, in test [2] (SPR), the “HRAS/KRAS (ratio of KD value with respect to GDP-bound HRAS wild-type protein to KD value with respect to KRAS)” value was “C (A compound having a KD ratio of 0.1 or more and less than 3 is denoted as C)”.

For the origin of these results see patent publication US20250230193A1, “CYCLIC COMPOUND HAVING SELECTIVE KRAS INHIBITORY EFFECT ON HRAS AND NRAS” (CHUGAI SEIYAKU KABUSHIKI KAISHA, priority 2022, published 2025).
